Assay results taken from US20230380435A1, “METHOD FOR PREPARING AND PRESERVING SANITIZED PRODUCTS” (Apeel Technology, Inc., priority 2016, published 2023).

Legend:
blueberries = test: Effect of ethanol on post-harvest mass loss of blueberries; details: after just under four days, solvent only, no coating agent, 23-27 °C, humidity 40%-55%
Source text: The blueberries were all harvested simultaneously and divided into groups, each of the groups being qualitatively identical to the other groups (i.e., all groups had blueberries of approximately the same average size and quality).
Blueberries were harvested simultaneously and divided into four groups of sixty blueberries each, each of the groups being qualitatively identical (i.e., all groups had blueberries of approximately the same average size and quality). The first group of blueberries was not washed or treated in any way and served as a control group.
To treat the blueberries with the various solvents, the blueberries were placed in bags, and the solvent was poured into the bag. The bag was then sealed and lightly agitated until the entire surface of each blueberry was wet. The blueberries were then removed from the bag and allowed to dry on drying racks. The blueberries were kept under ambient room conditions at a temperature in the range of 23° C.-27° C. and humidity in the range of 40%-55% while they dried and for the entire duration of the time they were tested.

Botrytis = details: applied for 10 at least seconds; cited from earlier work
Listeria monocytogenes = details: cited from earlier work

CCO [substantially pure ethanol (108), ethanol]
average percent mass loss (blueberries): about 19% | ethanol concentration inhibiting germination (Botrytis): ≥ 30% | ethanol concentration inhibiting (not completely stopping) growth (Listeria monocytogenes): 5%
